Paper PMC4964461, “Synthesis and Evaluation of Tricarbonyl ^99mTc-Labeled 2-(4-Chloro)phenyl-imidazo[1,2-a]pyridine Analogs as Novel SPECT Imaging Radiotracer for TSPO-Rich Cancer” (International Journal of Molecular Sciences, 2016)

Molecular target: T1, 18-kDa translocator protein (TSPO) (Rattus norvegicus, UniProt P16257)
T1 construct: native TSPO in rat C6 glioma cell membranes
Assay: [3H]-PK […] radioligand displacement on C6 glioma membrane extracts
Format: binding
Conditions: read-out: Ki (nM) for TSPO

| Structure (SMILES) | Ki [nM] |
| --- | --- |
| CCCN(CCC)C(=O)Cc1c(-c2ccc(Cl)cc2)nc2c(NC(=O)C[N+]34Cc5cccc[n+]5[Re-5]3([C]#[O+])([C]#[O+])([C]#[O+])[n+]3ccccc3C4)cccn12 (centres unmarked) [compound 2, Re-CB256] | 159 ± 8.7 |
| CCCN(CCC)C(=O)Cc1c(-c2ccc(Cl)cc2)nc2c(NC(=O)CN(Cc3ccccn3)Cc3ccccn3)cccn12 [compound 3] | 148 ± 11.3 |
